Test results reported in paper PMC8231556, “Inhibiting Endothelial Cell Function in Normal and Tumor Angiogenesis Using BMP Type I Receptor Macrocyclic Kinase Inhibitors” (Cancers, 2021).

How the values were obtained:
ACVR2A = ACVR2A (Homo sapiens, UniProt P27037); assay: radiometric protein kinase assay, affinity (Kd); format: binding
Procedure: The binding interaction profile of the compounds for ALK1–6, ACVR2A, ACVR2B, and TGFβR2 was determined by using radiometric protein kinase assay. For each compound, ten different concentrations (from 3 × 10^−6 M to 9 × 10^−11 M) were used in the protein kinase reaction. The inhibitor binding constants (Kd values) were calculated based on the 10 corresponding residual activities for each compound using Prism 5.04 (Graphpad, San Diego, CA, USA) according to the following formula:Kd = ([K][I]/[C]) where [K] = molar concentration of non-inhibitor bound kinase at equilibrium, [I] = molar concentration of the free inhibitor at equilibrium, [C] = molar concentration of kinase-inhibitor complex at equilibrium.

VEGF-induced pERK = assay: Western blot of VEGF-induced ERK MAP kinase phosphorylation in HUVECs; format: cell-based, human; settings: VEGF 40 ng/mL
Procedure: EA.hy926 cells or HUVECs were seeded in 6-well plates and starved in a serum-free medium for 4 h after reaching 80% confluence. The compounds were added 30 min prior to stimulation with the corresponding ligands. EA.hy926 cells were incubated with BMP9 (1 ng/mL), BMP6 (50 ng/mL), TGF-β2 (1 ng/mL), or vehicle control for 1 h. For HUVECs, after 4 h starvation, the cells were pre-treated with or without the indicated compounds for 30 min and subsequently stimulated with VEGF (40 ng/mL) for 10 min. The cells were harvested and lysed in radioimmunoprecipitation assay (RIPA) lysis buffer containing 1× complete protease inhibitor cocktail (11836153001, Roche, Basel, Switzerland). The protein concentration was determined using the DC protein assay kit (5000111, Bio-Rad). After adding loading buffer, the samples were boiled and proteins separated by sodium dodecyl sulfate polyacrylamide gel electrophoresis (SDS-PAGE). Proteins in the gel were transferred to polyvinylidene difluoride (PVDF) membranes (IPVH00010, Merck Millipore, Burlington, MA, USA) and immunoblotted with 1000 times diluted primary antibodies: phospho-SMAD1/5 (9516 S, Cell Signaling Technology, Leiden, The Netherlands), phospho-SMAD2 (pSMAD2, home-made), SMAD1 (6944 S, Cell Signaling Technology), SMAD2 (3103 S, Cell Signaling Technology), phospho-extracellular signal-regulated kinase/mitogen-activated protein kinase (pERK/MAPK, 4370, Cell Signaling Technology), mitogen-activated protein kinase/ERK1/2 (ERK1/2/MAPK, 9102 S, Cell Signaling Techonol), VEGFR (2479, Cell Signaling), pVEGFR (2478, Cell Signaling Technology), α/β-Tubulin (2148, Cell Signaling Technology), glyceraldehyde 3-phosphate dehydrogenase (GAPDH, MAB374, Merck Millipore). Clarity™ enhanced chemiluminescence (ECL) reagent (1705060, Bio-Rad) was used to visualize secondary antibodies conjugated to horseradish peroxidase (HRP). GAPDH or Tubulin was used as protein loading controls. […] The protein bands were quantified using ImageJ (National Institutes of Health, Bethesda, MD, USA).

[1] = test system: Tg (fli:EGFP) zebrafish embryos; assay: Zebrafish subintestinal vessel (SIV) formation; format: in vivo; settings: 0.5 µM, 3 days
Procedure: The Tg (fli:EGFP) zebrafish embryos were collected, and embryos with the same development stage (around 2.5 hpf) were selected. Groups containing at least 25 embryos were treated with the indicated compounds at 0.5 µM for 3 days. The egg water was refreshed every day, and the abnormal embryos were removed. After 3 days of treatment, the zebrafish embryos were fixed in 4% PFA for 2 h at room temperature and stored at 4 °C in PBS. The area containing SIV in each zebrafish embryo was scanned with an Andor Dragonfly 500 spinning disk confocal by using a 488 nm laser. At least ten zebrafish embryos in each group were randomly selected and analyzed. The SIV vasculature of the zebrafish was quantified with ImageJ. The leading buds were counted as previously described. The experiments were repeated twice with similar results.

[2] = test system: MDA-MB-231 breast cancer cell-induced angiogenesis; assay: Tumor angiogenesis in zebrafish (MDA-MB-231 xenograft); format: in vivo; settings: 0.5 µM, 3 days, MDA-MB-231 in perivitelline space
Procedure: Two days post fertilization (dpf), four hundred mCherry-labeled human breast cancer MDA-MB-231 cells were injected into the perivitelline space of Tg (fli:EGFP) zebrafish embryos as previously described. The properly injected zebrafishes were randomly divided into five groups, and each group contained at least 30 embryos. […] The egg water was refreshed daily, and the abnormal embryos were removed. After 3 days, the embryos were fixed in 4% PFA for 2 h at room temperature and stored at 4 °C in PBS. The tumor cell-induced angiogenesis in the perivitelline space was imaged with an Andor Dragonfly 500 spinning disk confocal using 488 nm and 561 nm lasers. At least ten embryos per group were randomly selected and scanned. The experiments were repeated twice with similar results. Tumor angiogenesis was quantified using ImageJ, and the relative vasculature density was calculated according to the following formula: Relative vasculature density (%) = 100% × (Vessel intensity within the perivitelline space)/(tumor cells intensity within the perivitelline space).

EA.hy926 cells [3] = assay: Proliferation assay (IncuCyte confluence); format: cell-based, human; settings: 0.5 µM, 3 days
Procedure: Around 4 × 10^3 EA.hy926 cells per well were seeded in a 96-well microplate Essen ImageLock™ in 200 µL of culture medium containing the indicated concentrations of compounds and ligands, and the plate was directly inserted into the IncuCyte ZOOM instrument for scanning. Images of each well were acquired every 4 h for 3 days. The real-time cell confluence in each well was analyzed after normalizing to the initial cell density. All the experiments were repeated at least three times, and representative results are shown.

EA.hy926 cells [4] = assay: Scratch wound migration assay; format: cell-based, human; settings: 0.5 µM, 24 h; for effect on FBS-induced EC migration: 1% FBS; for effect on BMP9-induced EC migration: BMP9 1 ng/mL; for effect on VEGF-induced EC migration: VEGF 15 ng/mL
Procedure: Approximately 5 × 10^4 EA.hy926 cells/well were seeded in a 96-well microplate Essen ImageLock™ (4379, Essen Bioscience, Ann Arbor, MI, USA) and cultured overnight. Then homogeneous 700–800 micron-wide scratch wounds were made using a WoundMaker™ device (4563, Essen Bioscience, Ann Arbor, MI, USA) containing 96 pins. The compounds and/or ligands were added to each well in 100 µL of fresh serum-free medium. Each group contained 6 replicates. Real-time pictures were acquired every 4 h by the IncuCyte ZOOM (Essen Bioscience) to track the wound closure. The wound density was analyzed using the software package provided by the manufacturer and normalized to the wound width at the start of the experiment. All the experiments were repeated at least three times, and representative results are shown.

Chain of ACVR2A (P27037 20-513): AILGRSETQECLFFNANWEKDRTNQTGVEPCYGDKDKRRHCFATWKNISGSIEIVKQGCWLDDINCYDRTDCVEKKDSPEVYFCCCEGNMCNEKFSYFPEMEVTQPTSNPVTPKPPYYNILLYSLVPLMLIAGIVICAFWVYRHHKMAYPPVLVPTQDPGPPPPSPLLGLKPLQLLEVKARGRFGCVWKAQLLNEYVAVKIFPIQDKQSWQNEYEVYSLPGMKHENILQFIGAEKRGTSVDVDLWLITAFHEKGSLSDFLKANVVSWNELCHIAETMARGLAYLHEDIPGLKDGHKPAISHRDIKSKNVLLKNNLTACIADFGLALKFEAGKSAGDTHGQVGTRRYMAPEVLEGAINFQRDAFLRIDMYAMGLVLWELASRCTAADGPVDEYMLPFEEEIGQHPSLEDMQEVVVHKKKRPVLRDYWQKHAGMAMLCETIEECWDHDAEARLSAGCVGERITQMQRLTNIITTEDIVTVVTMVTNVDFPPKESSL

CN1CCC(=O)NCCNc2ccn3ncc(c3n2)-c2cccc(c2)C1 [OD29]
Kd (ACVR2A): 1240 nM
effect on VEGF-induced pERK (VEGF-induced pERK): profoundly decreased
effect on SIV vessel length [1]: significantly inhibited
effect on number of SIV tip cells (leading buds) [1]: did not influence
effect on cancer cell-induced angiogenesis (relative vasculature density) [2]: significantly inhibited
effect on EC proliferation (real-time confluence) (EA.hy926 cells [3]): LDN-193189 strongly inhibited ECs proliferation, unlike OD16 and OD29
effect on FBS-induced EC migration (EA.hy926 cells [4]): effective in suppressing
effect on BMP9-induced EC migration (EA.hy926 cells [4]): significantly inhibited
effect on VEGF-induced EC migration (EA.hy926 cells [4]): antagonized

CNC(=O)c1ccccc1Sc1ccc2c(/C=C/c3ccccn3)n[nH]c2c1 [Axitinib, reference compound]
effect on VEGF-induced pERK (VEGF-induced pERK): blocked
effect on SIV vessel length [1]: markedly inhibited
effect on cancer cell-induced angiogenesis (relative vasculature density) [2]: markedly inhibited

CN1CCc2cccc(c2)Nc2nccc(n2)N2CCCc3cc(ccc32)C1 [OD16]
Kd (ACVR2A): 110 nM
effect on VEGF-induced pERK (VEGF-induced pERK): failed to alter
effect on SIV vessel length [1]: significantly inhibited
effect on number of SIV tip cells (leading buds) [1]: did not influence
effect on cancer cell-induced angiogenesis (relative vasculature density) [2]: significantly inhibited
effect on EC proliferation (real-time confluence) (EA.hy926 cells [3]): LDN-193189 strongly inhibited ECs proliferation, unlike OD16 and OD29
effect on FBS-induced EC migration (EA.hy926 cells [4]): did not affect
effect on BMP9-induced EC migration (EA.hy926 cells [4]): significantly inhibited
effect on VEGF-induced EC migration (EA.hy926 cells [4]): antagonized

c1ccc2c(-c3cnn4cc(-c5ccc(N6CCNCC6)cc5)cnc34)ccnc2c1 [LDN-193189, reference compound]
Kd (ACVR2A): 11 nM
effect on SIV vessel length [1]: resulted in a lack of SIV vessels
effect on number of SIV tip cells (leading buds) [1]: significantly increased
effect on EC proliferation (real-time confluence) (EA.hy926 cells [3]): strongly inhibited
effect on FBS-induced EC migration (EA.hy926 cells [4]): did not affect
effect on BMP9-induced EC migration (EA.hy926 cells [4]): significantly inhibited
effect on VEGF-induced EC migration (EA.hy926 cells [4]): no inhibitory effect
